Reference: US6602664B2 (priority 1998, dated 2003)
pEC50: −log10 of the molar value. Several values for one entry are separate records, joined by “and”; a condition that tells them apart may be missing. Identical values can stand only once. Like-named read-outs stand apart in the source and are kept apart here.

Legend:
Type in all cases: cell-based
[1] = tested on: recombinant HIV-1 virus isolates
Description: The aim of the study was to determine the potency of the inhibitory effect of a new generation of NRTIs on Multi Drug Resistant isolates and to compare it with their effect on wild-type HIV-1 isolates. All recombinant viruses were taken from the VIRCO repository of phenotypically and genotypically characterized virus isolates. Hirsch et al. Antiretroviral Drug Resistance Testing in Adults with HIV Infection. JAMA; 1998: 79(24) 1984-1991. See also Pauwels et al. Comprehensive HIV drug Resistance monitoring using rapid, high-throughput phenotypic and genotypic assays with correlative data analysis. Antiviral Therapy, 1998: 3: 35 Abstract 51.
Phenotypic drug susceptibility determination of recombinant virus isolates is described in Hertogs et al. A Rapid Method for Simultaneous Detection of Phentypic Resistance to Inhibitors of Protease and Reverse Transcriptase in Recombinant HIV-1 Isolates from Patients Treated with Antiretroviral Drugs. Antimicrob. Agents Chemother. 1998; 42(2): 269-276. The basic principle of the Antivirogram® technology is the construction of chimeric HIV-1 strains composed of the protease (PR) and reverse transcriptase (RT) gene sequences which are isolated and amplified from patient viral RNA. Amplicons are subsequently transfected into CD4+T cells together with a standard laboratory isogenic (HXB2) HIV-1 DNA construct from which the PR/RT gene sequences were deleted. After homologous recombination, new viruses whose diversity reflects the original population amplified from the plasma are produced at high level from these cells.
The virus infectivity (CCID50) is determined by an end-point dilution method. The titer is calculated from the degree of infection, measured by the intensity of reporter-gene signal as generated by serial dilutions of the virus shock. The chimeric (clinical isolates and wild-type reference) viruses are then analyzed for their phenotypic sensitivity (i.e. susceptibility) to the different PR and RT-inhibitors in an automated reporter gene-based assay using serial dilutions of the compound. The standardisation of the Antivirogram®n assay allows for simultaneous testing of all clinically approved drugs in one 384-well microtiter plate. The experimental drugs are included in separate plates. Each plate contains multiple replicates of mock-infected wells, virus-infection control wells and blank (medium-only) well. All plates are tested in duplicate. 50% Inhibitory concentrations are calculated based on reporter signals obtained through optical reading of 384-well plates containing serial dilutions of compounds, a normalised quantity of virus and by taking into account all relevant control wells. Approval (or not) is done according to critical ranges and settings as described in the corresponding VIRCO Standard Operating Procedure.
A more detailed description of the protocol is as follows. Samples were stored frozen. […] To confirm the genotypic pattern, genotyping (ABI-sequencing) was performed after recombination and culture of the laboratory strains by analysis of cell viability, calculation of results (dose-response curves, IC50 values), and reporting of data.

[2] = tested on: drug-resistant HIV-1 in MT-2; test: microbe, parasite or virus in culture; conditions: for Fold-resistance: MT-2
[3] = tested on: drug-resistant HIV-1 in MT-4; test: microbe, parasite or virus in culture
[4] = tested on: drug-resistant HIV-1 in PBMC; test: microbe, parasite or virus in culture; conditions: PBMC; for pEC50: Human immunodeficiency virus 1, PBMC
[5] = tested on: drug-resistant HIV-1 in HeLa HT4-6C; test: microbe, parasite or virus in culture; conditions: for pEC50: Human immunodeficiency virus 1, HeLa
[6] = tested on: HIV-1 replication in human PBM cells; test: microbe, parasite or virus in culture
Procedure: Cells and viruses. […] Antimicrobial Agents Chemother 1992;36(11): 2423-2431.
Cell pellets were washed, centrifuged, lysed and the proviral DNA extracted as previously described. Cytotoxicity of the compounds was determined using the Promega Cell Titer 96 dye uptake assay (Madison, Wis.) in 1-2 day PHA-stimulated PBM cells after 5 days in culture. The median effective concentration (EC50) and inhibitory concentration (IC50) were derived from the computer-generated median effect plot of the dose-effect data, as described previously.

[7] = HIV-1 (A012D:M41L?/D67N/K70R/T215F/K219Q)
[8] = clinical isolate (pre) prior to long-term ZDV monotherapy, row HIV-1 (A012D), read-out: Untreated EC50
[9] = clinical isolate HIV-1 (A012D:M41L?/D67N/K70R/T215F/K219Q), read-out: Selected Varient EC50
[10] = Human immunodeficiency virus 1, PBMC, 144 h

Cc1cn([C@H]2C[C@H](N=[N+]=[N-])[C@@H](CO)O2)c(=O)[nH]c1=O [AZT, 3′-azido-3′-deoxythymidine]
fold Resistance ([1]; RT genotype D67D/N, K70R, M184V, G333E): 0.9
fold Resistance ([1]; RT genotype D67N, K70R, K219Q/K, 181C/Y): 12
fold Resistance ([1]; RT genotype K70R, K219Q): 5
fold Resistance ([1]; RT genotype M41L, D67N, K70R, K103N, L210W, T215Y, K219N/K): >36
fold Resistance ([1]; RT genotype M41L, L210L, T215Y, Y181C/Y, M184M/V): >36
fold Resistance ([1]; RT genotype M41L, L210W, T215Y): 24
fold Resistance ([1]; RT genotype M41L, T69S-V-T, L210W, T215Y, G333E): >65
fold Resistance ([1]; RT genotype M41L, T215Y, M184V): 5.5
fold Resistance ([1]; RT genotype T69G, Q151M, M184V/M): >65
fold Resistance ([1]; RT genotype T69I, K70R, Q151M, M184V): >65
fold Resistance ([1]; RT genotype T69S-E, M184I, T215Y): >65
fold Resistance ([1]; RT genotype T215Y): 13.5
fold Resistance ([1]; recombinant isolate, RT genotype K70R): 0.7
Fold-resistance ([2]; HIV-1 (D67N/K70R/M184V/T215Y/K219Q)): 5
Fold-resistance ([2]; HIV-1 (D67N/K70R/T215Y/K219Q)): 33
Fold-resistance ([2]; HIV-1 (M41L/D67N/M184V/H208Y/L210W/R211K/L214F/T215Y)): >550
Fold-resistance ([2]; HlV-1 (M184V)): 1.5
pEC50 ([2]; Human immunodeficiency virus 1, MT2, read-out: Untreated EC50): 8.22
Fold-resistance ([3]; HIV-1 (A-161)): 60
Fold-resistance ([3]; HIV-1 (C-246)): 35
Fold-resistance ([3]; HIV-1 (G-68)): 33
Fold-resistance ([3]; HIV-1 (R-102)): 60
Fold-resistance ([3]; HIV-1 (X-78)): 55
pEC50 ([3]; Human immunodeficiency virus 1, MT4, clinical isolate (pre) prior to long-term ZDV monotherapy, row HIV-1 (A-161), read-out: Untreated EC50): 7.70
pEC50 ([3]; Human immunodeficiency virus 1, MT4, clinical isolate (pre) prior to long-term ZDV monotherapy, row HIV-1 (C-246), read-out: Untreated EC50): 7.70
pEC50 ([3]; Human immunodeficiency virus 1, MT4, clinical isolate (pre) prior to long-term ZDV monotherapy, row HIV-1 (G-68), read-out: Untreated EC50): 7.70
pEC50 ([3]; Human immunodeficiency virus 1, MT4, clinical isolate (pre) prior to long-term ZDV monotherapy, row HIV-1 (R-102), read-out: Untreated EC50): 7.70
pEC50 ([3]; Human immunodeficiency virus 1, MT4, clinical isolate (pre) prior to long-term ZDV monotherapy, row HIV-1 (X-78), read-out: Untreated EC50): 7.70
pEC50 ([3]; Human immunodeficiency virus 1, MT4, clinical isolate HIV-1 (A-161), long-term ZDV monotherapy, read-out: Selected Varient EC50): 5.92
pEC50 ([3]; Human immunodeficiency virus 1, MT4, clinical isolate HIV-1 (C-246), long-term ZDV monotherapy, read-out: Selected Varient EC50): 6.15
pEC50 ([3]; Human immunodeficiency virus 1, MT4, clinical isolate HIV-1 (G-68), long-term ZDV monotherapy, read-out: Selected Varient EC50): 6.19
pEC50 ([3]; Human immunodeficiency virus 1, MT4, clinical isolate HIV-1 (R-102), long-term ZDV monotherapy, read-out: Selected Varient EC50): 5.92
pEC50 ([3]; Human immunodeficiency virus 1, MT4, clinical isolate HIV-1 (X-78), long-term ZDV monotherapy, read-out: Selected Varient EC50): 5.96
Fold-resistance ([4]; 1 (T215Y/M41L)): 11
Fold-resistance ([4]; (M184V/T215Y)): 5.8
Fold-resistance [4, 7]: 240
Fold-resistance ([4]; HIV-1 (D67N/K70R/T215Y/K219Q)): 9
Fold-resistance ([4]; HIV-1 (K65R)): 2
Fold-resistance ([4]; HIV-1 (L74V)): 0.8
Fold-resistance ([4]; HIV-1 (M184V)): 0.8
Fold-resistance ([4]; HIV-1 (T215Y)): 2.5
pEC50 [4, 8]: 9.00
pEC50 [4, 9]: 6.62
pEC50 ([4]; molecular clone 1 (T215Y/M41L), read-out: Selected Varient EC50): 7.38
pEC50 ([4]; molecular clone (M184V/T215Y), read-out: Selected Varient EC50): 7.64
pEC50 ([4]; molecular clone HIV-1 (D67N/K70R/T215Y/K219Q), read-out: Selected Varient EC50): 7.44
pEC50 ([4]; molecular clone HIV-1 (K65R), read-out: Selected Varient EC50): 8.10
pEC50 ([4]; molecular clone HIV-1 (L74V), read-out: Selected Varient EC50): 8.52
pEC50 ([4]; molecular clone HIV-1 (M184V), read-out: Selected Varient EC50): 8.52
pEC50 ([4]; molecular clone HIV-1 (T215Y), read-out: Selected Varient EC50): 8.00
pEC50 ([4]; parent strain HIV-1 (xxLAI), row 1 (T215Y/M41L), read-out: Untreated EC50): 8.40
pEC50 ([4]; parent strain HIV-1 (xxLAI), row (M184V/T215Y), read-out: Untreated EC50): 8.40
pEC50 ([4]; parent strain HIV-1 (xxLAI), row HIV-1 (D67N/K70R/T215Y/K219Q), read-out: Untreated EC50): 8.40
pEC50 ([4]; parent strain HIV-1 (xxLAI), row HIV-1 (K65R), read-out: Untreated EC50): 8.40
pEC50 ([4]; parent strain HIV-1 (xxLAI), row HIV-1 (L74V), read-out: Untreated EC50): 8.40
pEC50 ([4]; parent strain HIV-1 (xxLAI), row HIV-1 (M184V), read-out: Untreated EC50): 8.40
pEC50 ([4]; parent strain HIV-1 (xxLAI), row HIV-1 (T215Y), read-out: Untreated EC50): 8.40
Fold-resistance [5, 7]: 200
Fold-resistance ([5]; HIV-1 (A018C:D67N/K70R/T215Y/K219Q)): 400
Fold-resistance ([5]; HIV-1 (A036DD:M41L/D67N/K70R/T215Y)): 800
Fold-resistance ([5]; HIV-1 (P022C:M41L?/D67N/K70R/T215F/K219Q)): 187
Fold-resistance ([5]; HIV-1 (P026B:M41L?/D67N/K70R/T215Y)): 280
pEC50 [5, 8]: 8.00
pEC50 ([5]; clinical isolate (pre) prior to long-term ZDV monotherapy, row HIV-1 (A018C), read-out: Untreated EC50): 8.00
pEC50 ([5]; clinical isolate (pre) prior to long-term ZDV monotherapy, row HIV-1 (A036DD), read-out: Untreated EC50): 8.15
pEC50 ([5]; clinical isolate (pre) prior to long-term ZDV monotherapy, row HIV-1 (P022C), read-out: Untreated EC50): 7.52
pEC50 ([5]; clinical isolate (pre) prior to long-term ZDV monotherapy, row HIV-1 (P026B), read-out: Untreated EC50): 8.00
pEC50 [5, 9]: 5.70
pEC50 ([5]; clinical isolate HIV-1 (A018C:D67N/K70R/T215Y/K219Q), read-out: Selected Varient EC50): 5.40
pEC50 ([5]; clinical isolate HIV-1 (A036DD:M41L/D67N/K70R/T215Y), read-out: Selected Varient EC50): 5.26
pEC50 ([5]; clinical isolate HIV-1 (P022C:M41L?/D67N/K70R/T215F/K219Q), read-out: Selected Varient EC50): 5.25
pEC50 ([5]; clinical isolate HIV-1 (P026B:M41L?/D67N/K70R/T215Y), read-out: Selected Varient EC50): 5.55
EC90 [6]: 21 nM and 14 nM
EC90 ([6]; Human immunodeficiency virus 1, PBMC): 13 nM
inhibition at 0.1 µM [6, 10]: -12.9%
inhibition at 1 µM [6, 10]: 67.6%
inhibition at 10 µM [6, 10]: 83.2%
inhibition at 100 µM [6, 10]: 98.2%
